According to patent US20040102454A1, “Phenylahistin and the phenylahistin analogs, a new class of anti-tumor compounds” (priority 1998, published 2004):
In brackets after ≈: the same amount, converted by molar mass. Several values for one entry are separate records, joined by “and”; a condition that tells them apart may be missing. Equal values may be shown once. Read-outs that look alike come from different tables or passages of the source.

Columns and labels:
P388 cells = test: P388 proliferation, Alamar Blue assay; type: cell-based, murine; conditions: Mus musculus, P388; Alamar Blue assay (Table 4); read-out: IC50 for P388 Proliferation
Description: For this example, the Alamar Blue™ assay was performed as follows. Exponentially growing P388 cells were seeded into 96-well tissue culture plates (5×10^3 cells/100 μl/well) and cultured in RPMI 1640 medium supplemented with 10% fetal bovine serum for 16 h. Compounds (DMSO solution) were then added to each well at various concentrations, and the cells were cultured for an additional 48 h. Living cells were counted using Alamar Blue™ (BioSource International, Camarillo, Calif.), according to the method of Ahmed, S. A. et al., J. Immunol. Methods, 170, 211 (1994).

[1] = system: Microtubule protein from bovine brain; test: Microtubule protein polymerization assay (turbidity); type: biochemical; conditions: microtubule protein 1.5 mg/ml (Table 4); read-out: IC50 for Microtubule Protein Polymerization
Description: Microtubule protein was prepared from bovine brain tissue by two cycles of assembly and disassembly according to the method of Tiwari, S. C. et al. Anal. Biochem, (1993), 215, 96-103. Tubulin was purified from microtubule protein by phosphocellulose chromatography see Algaier, J. et al. Biochim. Biophys. Acta, (1988), 954, 235-43, and tubulin purity was evaluated by polyacrylamide gel electrophoresis, as in Laemmli, U.K., Nature, (1970), […], 680-85. […] Protein concentrations were determined using the Coomassie® Protein Assay Reagent from Pierce (Rockford, Ill.).
Polymerization of microtubule protein was monitored by an increase in turbidity at 37° C. in microtubule assembly buffer containing 100 mM MES, 0.5 mM MgCl2, 1 mM EGTA and 1 mM GTP. See Johnson, K. A. et al., J. Mol. Biol., (1977), 117, 1-31. Polymerization of purified tubulin was measured using the same method except the microtubule assembly buffer contained 4 M glycerol. See Lee, J. C. et al., Biochemistry, (1975), 14, 5183-87. Microtubule protein and tubulin polymerization was initiated by a temperature shift from 0° C. to 37° C. and turbidity was measured on a DU-20 thermocontrolled spectrophotometer from Beckman (Fullerton, Calif.) at 360 nm. Drugs were dissolved in dimethyl sulfoxide (DMSO), which was used in all experiments at a final concentration of 2% (v/v).
For this example, the microtubule protein polymerization assay was performed as follows. Microtubule protein was prepared from bovine brain tissue by two cycles of assembly and disassembly. Polymerization of microtubule protein was monitored by an increase in turbidity at 37° C. in microtubule assembly buffer containing 100 mM MES, 0.5 mM MgCl2, 1 mM EGTA and 1 mM GTP. The polymerization of microtubule protein was initiated by a temperature shift from 0° C. to 37° C. Turbidity was measured on a thermo-controlled spectrophotometer (Beckman DU-20, Fullerton, Calif.) at 360 nm. Compounds were dissolved in DMSO, which was used in all experiments at a final concentration of 2% (v/v).

PARP in Jurkat cells = test: Cleavage of poly(ADP-ribose) polymerase (PARP), western blotting; type: cell-based; conditions: 10 hours after exposure
From the text: In order to assess the ability of t-butyl-phenylahistin to induce apoptosis in Jurkat cells, cleavage of poly(ADP-ribose) polymerase (PARP) was monitored. PARP is a 116 kDa nuclear protein that is one of the main intracellular targets of Caspase-3. The cleavage of PARP generates a stable 89 kDa product, and this process can be easily monitored by western blotting. Cleavage of PARP by caspases is one of the hallmarks of apoptosis, and as such serves as an excellent marker for this process.

T. rubrum isolate #1 = test: Antifungal susceptibility testing, broth dilution (NCCLS M38-A); type: cell-based, Trichophyton rubrum; conditions: T. rubrum isolate #1; for MIC: 80% reduction in turbidity
Description: (§1) Antifungal susceptibility testing was accomplished according to the methods outlined in the National Committee for Clinical Laboratory Standards, M38-A “Reference Method for Broth Dilution Antifungal Susceptibility Testing of Conidium-Forming Filamentous Fungi; Approved Standard.” This includes testing in RPMI-1640 with glutamine and without bicarbonate, an inoculum size of 0.4-5×10^4, and incubation at 30 or 35° C. for 48 hours. […] Drug concentrations were 0.03-16 μg/ml for the investigational compounds, 0.015-8 μg/ml for itraconazole and griseofulvin.
(§2) The minimum lethal concentration (MLC) was determined by plating […] from the MIC concentration and each concentration above the MIC. […] When a MIC was obtained, a minimum fungicidal concentration (MFC) was determined to assess the fungistatic/fungicidal nature of the compound. […] The compound is scored as fungistatic if the cells are able to resume growth and fungicidal if no regrowth is possible because the compound had killed the organisms.

T. rubrum isolate #2 = test: as above; type: cell-based, Trichophyton rubrum; conditions: for MIC: 80% reduction in turbidity
Description: as §1, §2

[2] = system: T. mentagrophytes isolate #1; test: as above; type: cell-based, Trichophyton mentagrophytes; conditions: for MIC: 80% reduction in turbidity
Description: as §1, §2

[3] = system: T. mentagrophytes isolate #2; test: as above; type: cell-based, Trichophyton mentagrophytes; conditions: 80% reduction in turbidity
Description: as §1, §2

E. floccosum isolate #1 = test: as above; type: cell-based, Epidermophyton floccosum; conditions: 80% reduction in turbidity
Description: as §1, §2

E. floccosum isolate #2 = test: as above; type: cell-based, Epidermophyton floccosum
Description: as §1, §2

[4] = system: microtubules in A549 cells; test: Immunofluorescence staining of microtubules; type: cell-based, human; conditions: 6 hours incubation
Description: Immunocytochemical staining was performed using the method described by Yahara, I. et al., Cell (1978) 15, 251-259. A549 cells were cultured on glass coverslips and incubated with the test drug for 6 hours. The cells were then fixed with 3.7% formaldehyde for 30 min, permeabilized with 0.2% Triton X-100 for 5 min, and incubated with a mouse monoclonal antibody against α-tubulin (Calbiochem®, Oncogene Research Products, Cambridge, Mass.), followed by incubation with fluorescein isothiocyanate-conjugated goat anti-mouse IgG from Cosmo Bio Co., (Tokyo, Japan), and the cells were examined under an immunofluorescent microscope.

[5] = system: MES-SA (Taxol Sensitive) human uterine sarcoma tumor cell line; test: Drug resistant cell line pair, cytotoxicity; type: cell-based; conditions: CsA Pretreat versus No CsA
From the text: MES-SA (Taxol Sensitive) and MES-SA DX (Taxol Resistant). This cell line expresses elevated mdr-1 mRNA and P-glycoprotein (an extrusion pump mechanism). Pretreatment with cyclosporin-A (CsA) blocks P-glycoprotein and reinstates activity in the resistant cell line for those compounds for which the resistance is due to elevated P-glycoprotein.

[6] = system: tubulin in Human umbilical vein endothelial cells (HuVEC); test: Action on microtubule function, staining for α-tubulin; type: cell-based; conditions: 2 μM, thirty minutes exposure
HuVEC monolayer = HuVEC monolayer permeability to FITC-Dextran; type: cell-based, human; conditions: FITC-Dextran
From the text: This vascular collapse is preceded by a rapid induction of vascular cell permeability initially to electrolytes and soon after to large molecules. The enhanced permeability of HuVEC cells to a fluorescent-labeled dextran is used as a proxy assay for vascular collapse.

[7] = system: DU-145 human prostate tumor; test: DU-145 Human Prostate Tumor Xenograft Model; type: in vivo, nude mice; conditions: Taxotere alone
Description: Male mice were implanted s.c. by trocar with fragments of DU-145 tumors harvested from s.c. growing tumors in nude male mice hosts. When the tumors reached ˜5 mm×5 mm ( at about 13-17 days) the animals were matched into treatment and control groups. The remainder of the study proceeded as for the HT-29 model, using taxotere as the standard chemotherapy agent.
In this model unless otherwise noted for the individual study, test compound was administered via the intraperitoneal route on Days 1, 3, 5, 8 and 11 (q3d×5); taxotere was administered intravenously on Days 1, 3 and 5 (q2d×3).
The study involved an assessment of t-butyl-phenyalhistin alone and in combination with taxotere.

bovine brain tubulin = test: [^3H]CLC binding to tubulin and competition assay
Description: [^3H]CLC binding to tubulin was evaluated by the ultrafiltration method of Takahashi, M., et al., Biochim. Biophys. […] The concentration of unbound [^3H]CLC in the filtrates was determined using a EcoLite™(+) liquid scintillator from ICN Pharmaceuticals Inc. (Costa Mesa, Calif.). Specific bound [^3H]CLC concentrations were determined by adding an excess (×100) of unlabeled CLC to the reaction mixture.
For the competition assay, bovine brain tubulin (0.2 mg/ml) was incubated in the microtubule assembly buffer with 0.5 μM [^3H]CLC and various concentrations of competitors for 20 min at 37° C. [^3H]CLC binding was measured as described above.

A. fumigatus isolate #2 = test: Antifungal susceptibility testing, broth dilution (NCCLS M38-A); type: cell-based; conditions: Aspergillus fumigatus, 80% reduction in turbidity
Description: as §1, §2

A. fumigatus isolate #1 = test: as above; type: cell-based; conditions: Aspergillus fumigatus, 80% reduction in turbidity
Description: as §1, §2

[8] = Trichophyton rubrum, read-out: MIC
[9] = Trichophyton mentagrophytes, read-out: MIC

Cc1[nH]cnc1C=C1NC(=O)C(Cc2ccccc2)NC1=O (stereo not drawn) [Compound 9]
IC50 (P388 cells): 7.5 µM | IC50 [1]: > 200 µM | melting point: 285 to 286 °C (dec.)

C=CC(C)(C)c1nc[nH]c1/C=C1\NC(=O)C(Cc2ccccc2)NC1=O (stereo not drawn) [Halimide]
cleavage of PARP (PARP in Jurkat cells): active at inducing cleavage of PARP

CC(C)(C)c1[nH]cnc1/C=C1\NC(=O)[C@H](Cc2ccccc2)NC1=O [NPI2460]
MFC (T. rubrum isolate #1): 0.125 µg/mL (≈ 0.369 µM) | MIC (T. rubrum isolate #1): <0.03 µg/mL | MFC (T. rubrum isolate #2): <0.03 µg/mL | MIC (T. rubrum isolate #2): <0.03 µg/mL | MFC [2]: >16 µg/mL | MIC [2]: 4 µg/mL (≈ 11.8 µM) | MIC [3]: >16 µg/mL | MIC (E. floccosum isolate #1): >16 µg/mL | MICs and MFCs (E. floccosum isolate #2): >16 µg/mL

CC(=O)O[C@H]1C(=O)[C@@]2(C)[C@H]([C@H](OC(=O)c3ccccc3)[C@]3(O)C[C@H](OC(=O)[C@H](O)[C@@H](NC(=O)c4ccccc4)c4ccccc4)C(C)=C1C3(C)C)[C@]1(OC(C)=O)CO[C@@H]1C[C@@H]2O [Taxol, paclitaxel, reference compound]
microtubule structure (anti α-tubulin staining) [4]: thick microtubule bundles and multiple bright fluorescent aster formation | Ratio No CsA [5]: 0.6 and 0.4 | microtubule depolymerization [6]: did not induce microtubule depolymerization | HuVEC monolayer permeability (HuVEC monolayer): inactive

CC(=O)O[C@@]12CO[C@@H]1C[C@H](O)[C@@]1(C)C(=O)[C@H](O)C3=C(C)[C@@H](OC(=O)[C@H](O)[C@@H](NC(=O)OC(C)(C)C)c4ccccc4)C[C@@](O)([C@@H](OC(=O)c4ccccc4)[C@H]21)C3(C)C [Taxotere, reference compound]
NCI established criterion for a positive effect (TGA 58%) [7]: did not reach the NCI established criterion

CC[C@]1(O)C[C@@H]2CN(CCc3c([nH]c4ccccc34)[C@@](C(=O)OC)(c3cc4c(cc3OC)N(C)[C@H]3[C@@](O)(C(=O)OC)[C@H](OC(C)=O)[C@]5(CC)C=CCN6CC[C@]43[C@@H]65)C2)C1 [VLB, vinblastine, reference compound]
effect on CLC binding to tubulin (bovine brain tubulin): slightly enhanced

COC1=CC(=O)C[C@@H](C)[C@]12Oc1c(Cl)c(OC)cc(OC)c1C2=O [griseofulvin, reference compound]
MIC (A. fumigatus isolate #2): 0.5 µg/mL (≈ 1.42 µM) | MIC (T. rubrum isolate #1; [8]): 0.5 µg/mL (≈ 1.42 µM) | MIC (T. rubrum isolate #2; [8]): < 0.015 µg/mL | MIC [2, 9]: 1 µg/mL (≈ 2.83 µM) | MIC [3, 9]: 2 µg/mL (≈ 5.67 µM) | MIC (E. floccosum isolate #1; Epidermophyton floccosum, read-out: MIC): 2 µg/mL (≈ 5.67 µM) | MFC (E. floccosum isolate #2; Epidermophyton floccosum, read-out: MICs and MFCs): 4 µg/mL (≈ 11.3 µM)

CCC(C)n1ncn(-c2ccc(N3CCN(c4ccc(OCC5COC(Cn6cncn6)(c6ccc(Cl)cc6Cl)O5)cc4)CC3)cc2)c1=O (stereo not drawn) [itraconazole, reference compound]
MIC (A. fumigatus isolate #1): 1 µg/mL (≈ 1.42 µM)
